Laboratory results reported in ChEMBL document CHEMBL5506003, “Design and biological evaluation of dual tubulin/HDAC inhibitors based on millepachine for treatment of prostate cancer” (Eur J Med Chem, 2024).

Key:
A549 = assay: Cytotoxicity against human A549 cells incubated for 72 hrs by MTT assay; settings: A549, 72 h
PC-3 [1] = assay: Cytotoxicity against human PC-3 cells incubated for 72 hrs by MTT assay; settings: PC-3, 72 h
U-251 = assay: Cytotoxicity against human U-251 cells incubated for 72 hrs by MTT assay; settings: U-251, 72 h
MDA-MB-231 = assay: Cytotoxicity against human MDA-MB-231 cells incubated for 72 hrs by MTT assay; assay type: functional, cell-based; settings: MDA-MB-231, 72 h
MCF7 = assay: Cytotoxicity against human MCF7 cells incubated for 72 hrs by MTT assay; settings: MCF7, 72 h
[2] = target: T1, Protein deacetylase HDAC6 (Homo sapiens, UniProt Q9UBN7); assay: Inhibition of HDAC6 in human HeLa nuclear extracts incubated for 30 mins by fluorescence based assay; assay type: cell-free
T1 sequence (Q9UBN7 whole entry): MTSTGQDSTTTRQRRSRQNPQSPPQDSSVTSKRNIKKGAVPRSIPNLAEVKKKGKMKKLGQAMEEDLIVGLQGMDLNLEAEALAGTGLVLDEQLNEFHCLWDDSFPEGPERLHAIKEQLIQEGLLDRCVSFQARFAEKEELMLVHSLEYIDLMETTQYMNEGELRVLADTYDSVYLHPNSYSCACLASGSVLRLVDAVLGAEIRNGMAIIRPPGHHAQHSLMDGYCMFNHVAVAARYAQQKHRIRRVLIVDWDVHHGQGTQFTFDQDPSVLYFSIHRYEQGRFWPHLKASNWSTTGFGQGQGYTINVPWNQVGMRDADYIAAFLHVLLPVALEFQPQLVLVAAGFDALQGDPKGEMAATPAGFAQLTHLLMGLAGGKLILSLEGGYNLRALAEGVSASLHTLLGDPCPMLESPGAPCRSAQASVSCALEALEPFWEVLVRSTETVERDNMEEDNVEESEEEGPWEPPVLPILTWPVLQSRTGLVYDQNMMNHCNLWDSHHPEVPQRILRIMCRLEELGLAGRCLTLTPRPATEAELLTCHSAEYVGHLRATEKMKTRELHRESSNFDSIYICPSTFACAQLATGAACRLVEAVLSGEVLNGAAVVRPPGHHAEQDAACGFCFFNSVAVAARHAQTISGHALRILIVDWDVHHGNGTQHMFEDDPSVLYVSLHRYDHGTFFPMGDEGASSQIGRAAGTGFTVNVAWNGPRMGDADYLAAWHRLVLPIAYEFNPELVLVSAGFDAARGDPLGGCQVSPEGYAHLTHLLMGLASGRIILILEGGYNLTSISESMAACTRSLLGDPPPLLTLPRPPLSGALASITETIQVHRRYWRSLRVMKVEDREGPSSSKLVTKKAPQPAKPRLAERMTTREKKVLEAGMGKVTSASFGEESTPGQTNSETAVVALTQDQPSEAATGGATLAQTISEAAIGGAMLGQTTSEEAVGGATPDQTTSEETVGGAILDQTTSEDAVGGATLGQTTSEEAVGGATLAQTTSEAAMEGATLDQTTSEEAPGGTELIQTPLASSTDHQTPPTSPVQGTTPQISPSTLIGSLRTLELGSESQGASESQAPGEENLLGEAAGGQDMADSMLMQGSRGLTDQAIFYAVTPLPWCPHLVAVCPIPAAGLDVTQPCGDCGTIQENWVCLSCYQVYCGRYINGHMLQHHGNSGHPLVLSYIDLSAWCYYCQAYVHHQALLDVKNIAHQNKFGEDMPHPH

Histone deacetylase 1 = Histone deacetylase 1 (Homo sapiens, UniProt Q13547); assay: Inhibition of HDAC1 in human HeLa nuclear extracts incubated for 30 mins by fluorescence based assay; assay type: cell-free
Chain of Histone deacetylase 1 (Q13547 whole entry): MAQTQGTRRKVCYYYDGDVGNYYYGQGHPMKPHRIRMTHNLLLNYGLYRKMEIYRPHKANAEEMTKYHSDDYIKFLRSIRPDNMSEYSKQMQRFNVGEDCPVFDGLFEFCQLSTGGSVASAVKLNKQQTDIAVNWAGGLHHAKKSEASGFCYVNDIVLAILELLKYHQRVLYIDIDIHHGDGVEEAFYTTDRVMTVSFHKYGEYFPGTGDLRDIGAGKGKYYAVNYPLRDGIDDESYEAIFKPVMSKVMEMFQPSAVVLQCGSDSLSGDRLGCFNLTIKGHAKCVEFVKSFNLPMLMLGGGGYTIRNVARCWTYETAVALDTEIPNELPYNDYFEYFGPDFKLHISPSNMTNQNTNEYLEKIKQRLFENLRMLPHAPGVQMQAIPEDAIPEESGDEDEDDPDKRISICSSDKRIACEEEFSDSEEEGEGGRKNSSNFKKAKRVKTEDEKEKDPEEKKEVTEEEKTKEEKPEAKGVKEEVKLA

Histone deacetylase 2 = Histone deacetylase 2 (Homo sapiens, UniProt Q92769); assay: Inhibition of HDAC2 in human HeLa nuclear extracts incubated for 30 mins by fluorescence based assay; assay type: cell-based
Chain of Histone deacetylase 2 (Q92769 whole entry): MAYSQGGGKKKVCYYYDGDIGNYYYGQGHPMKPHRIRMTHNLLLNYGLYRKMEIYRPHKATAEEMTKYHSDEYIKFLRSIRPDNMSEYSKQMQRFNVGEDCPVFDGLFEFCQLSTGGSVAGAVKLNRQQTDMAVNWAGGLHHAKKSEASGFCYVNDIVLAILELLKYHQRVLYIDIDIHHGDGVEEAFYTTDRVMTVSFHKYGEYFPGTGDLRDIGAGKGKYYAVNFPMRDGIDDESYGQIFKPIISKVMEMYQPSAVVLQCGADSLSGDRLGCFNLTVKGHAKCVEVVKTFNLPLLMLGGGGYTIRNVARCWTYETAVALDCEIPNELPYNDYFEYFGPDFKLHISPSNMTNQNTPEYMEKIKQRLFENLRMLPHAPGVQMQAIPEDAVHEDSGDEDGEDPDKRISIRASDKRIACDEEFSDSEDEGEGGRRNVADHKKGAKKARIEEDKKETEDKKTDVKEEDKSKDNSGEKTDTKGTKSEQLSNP

Histone deacetylase 7 = target: T2, Histone deacetylase 7 (Homo sapiens, UniProt Q8WUI4); assay: Inhibition of HDAC7 in human HeLa nuclear extracts incubated for 30 mins by fluorescence based assay; assay type: cell-free
T2 sequence (Q8WUI4 whole entry): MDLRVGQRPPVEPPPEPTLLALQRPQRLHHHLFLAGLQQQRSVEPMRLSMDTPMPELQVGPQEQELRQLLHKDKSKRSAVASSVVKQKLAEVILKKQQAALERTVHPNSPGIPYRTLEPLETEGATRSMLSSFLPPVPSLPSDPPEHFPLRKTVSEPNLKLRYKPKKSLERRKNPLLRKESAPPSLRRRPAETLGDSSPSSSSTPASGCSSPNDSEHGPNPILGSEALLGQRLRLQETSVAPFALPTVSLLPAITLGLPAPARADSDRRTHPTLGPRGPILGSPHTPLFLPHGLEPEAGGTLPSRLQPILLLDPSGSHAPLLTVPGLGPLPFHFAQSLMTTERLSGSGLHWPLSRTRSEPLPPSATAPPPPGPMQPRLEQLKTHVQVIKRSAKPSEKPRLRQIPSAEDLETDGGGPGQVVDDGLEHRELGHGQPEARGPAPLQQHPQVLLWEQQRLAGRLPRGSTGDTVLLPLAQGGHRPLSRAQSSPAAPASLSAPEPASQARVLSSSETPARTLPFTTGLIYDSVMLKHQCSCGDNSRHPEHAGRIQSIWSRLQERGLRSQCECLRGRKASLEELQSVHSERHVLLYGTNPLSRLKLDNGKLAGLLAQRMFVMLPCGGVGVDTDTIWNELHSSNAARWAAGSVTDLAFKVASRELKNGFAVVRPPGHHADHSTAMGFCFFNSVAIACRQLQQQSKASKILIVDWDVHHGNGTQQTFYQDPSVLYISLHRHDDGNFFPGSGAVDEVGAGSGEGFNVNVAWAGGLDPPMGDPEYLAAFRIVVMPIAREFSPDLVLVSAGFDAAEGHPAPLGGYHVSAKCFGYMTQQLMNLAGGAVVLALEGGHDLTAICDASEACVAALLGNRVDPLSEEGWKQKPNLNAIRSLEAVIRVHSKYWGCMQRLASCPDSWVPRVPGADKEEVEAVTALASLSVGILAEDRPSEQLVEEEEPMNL

PC-3 [3] = assay: Antitumor activity against human PC-3 cells xenografted in BALB/c nude mouse assessed as tumor growth inhibition at 5 mg/kg, iv administered every 2 days and measured after 3 weeks; assay type: functional; settings: PC-3, 504 h, read-out: TGI
[4] = Toxicity in BALB/c nude mouse xenografted with human PC-3 cells assessed as mortality at 5 mg/kg, iv administered every 2 days and measured after 3 weeks; assay type: organism-based; settings: in vivo, 504 h
[5] = Toxicity in BALB/c nude mouse xenografted with human PC-3 cells assessed as body weight loss at 5 mg/kg, iv administered every 2 days and measured after 3 weeks; assay type: organism-based; settings: in vivo, 504 h

| IC50 [2] [µM] | IC50 (Histone deacetylase 1) [µM] | IC50 (Histone deacetylase 2) [µM] | IC50 (Histone deacetylase 7) [µM] | SMILES | IC50 (A549) [µM] | IC50 (PC-3 [1]) [µM] | IC50 (U-251) [µM] | IC50 (MDA-MB-231) [µM] | IC50 (MCF7) [µM] | inhibition in vivo at 5 mg/kg (PC-3 [3]) [%] | Activity [4] | Activity [5] |
| --- | --- | --- | --- | --- | --- | --- | --- | --- | --- | --- | --- | --- |
|  |  |  |  | COc1ccc(/C=C/C(=O)c2ccc(Cl)c3c2OC(C)(C)C=C3)cc1OCC(=O)Nc1ccccc1N | 7.72 | 4.69 | 9.23 | 3.45 | 9.14 |  |  |  |
|  |  |  |  | COc1ccc(/C=C/C(=O)c2ccc(OC)c3c2OC(C)(C)C=C3)cc1OCCCC(=O)Nc1ccccc1N | > 10 | > 10 | 7.52 | > 10 | 9.47 |  |  |  |
|  |  |  |  | COc1ccc(/C=C/C(=O)c2ccc(OC)c3c2OC(C)(C)C=C3)cc1OCCCCCC(=O)Nc1ccccc1N | > 10 | 5.86 | > 10 | > 10 | > 10 |  |  |  |
|  |  |  |  | COc1ccc(/C=C/C(=O)c2ccc(OC)c3c2OC(C)(C)C=C3)cc1OCCCCCCC(=O)Nc1ccccc1N | > 10 | > 10 | > 10 | 3.89 | > 10 |  |  |  |
| 1.21 | 0.58 | 0.83 | 5.42 | COc1ccc(/C=C/C(=O)c2ccc(Br)c3c2OC(C)(C)C=C3)cc1OCC(=O)NO | 1.31 | 0.72 | 0.49 | 0.47 | 1.82 |  |  |  |
|  |  |  |  | COc1ccc(/C=C/C(=O)c2ccc(Br)c3c2OC(C)(C)C=C3)cc1NCC(=O)Nc1ccccc1N | > 10 | 1.23 | 3.66 | 4.05 | 4.06 |  |  |  |
|  |  |  |  | COc1ccc(/C=C/C(=O)c2ccc(OC)c3c2OC(C)(C)C=C3)cc1NCCCCCC(=O)Nc1ccccc1N | > 10 | 5.16 | > 10 | > 10 | > 10 |  |  |  |
|  |  |  |  | CC(=O)O[C@H]1C(=O)[C@@]2(C)[C@H]([C@H](OC(=O)c3ccccc3)[C@]3(O)C[C@H](OC(=O)[C@H](O)[C@@H](NC(=O)c4ccccc4)c4ccccc4)C(C)=C1C3(C)C)[C@]1(OC(C)=O)CO[C@@H]1C[C@@H]2O [PACLITAXEL] |  |  |  |  |  | 91.3 | Toxic | Toxic |
|  |  |  |  | COc1ccc(/C=C/C(=O)c2ccc(Cl)c3c2OC(C)(C)C=C3)cc1OCC(=O)NO | 2.56 | 0.22 | 1.76 | 0.5 | 1.45 |  |  |  |
|  |  |  |  | COc1ccc(/C=C/C(=O)c2ccc(Cl)c3c2OC(C)(C)C=C3)cc1NCC(=O)NO | 1.67 | 0.052 | 0.25 | 0.5 | 0.48 |  |  |  |
|  |  |  |  | COc1ccc(/C=C/C(=O)c2ccc(OC)c3c2OC(C)(C)C=C3)cc1NCC(=O)Nc1ccccc1N | 9.78 | 3.1 | 4.19 | 4.97 | 4.33 |  |  |  |
|  |  |  |  | COc1ccc(/C=C/C(=O)c2ccc(OC)c3c2OC(C)(C)C=C3)cc1OCC(=O)Nc1ccccc1N | > 10 | > 10 | 7.6 | > 10 | 8.72 |  |  |  |
|  |  |  |  | COc1ccc(/C=C/C(=O)c2ccc(OC)c3c2OC(C)(C)C=C3)cc1 [MILLEPACHINE] | > 10 | 1.13 | 3.72 | 2.47 | 4.37 |  |  |  |
|  |  |  |  | COc1ccc(/C=C/C(=O)c2ccc(Br)c3c2OC(C)(C)C=C3)cc1OCC(=O)Nc1ccccc1N | 8.2 | 3.75 | 6.68 | 4.75 | 6.11 |  |  |  |
|  |  |  |  | COc1ccc(/C=C/C(=O)c2ccc(OC)c3c2OC(C)(C)C=C3)cc1OCCCCCCC(=O)NO | > 10 | > 10 | > 10 | > 10 | 10 |  |  |  |
|  |  |  |  | COc1ccc(/C=C/C(=O)c2ccc(OC)c3c2OC(C)(C)C=C3)cc1NCCCCCC(=O)NO | > 10 | > 10 | > 10 | > 10 | > 10 |  |  |  |
| 3.35 | 0.87 | 1.43 | 8.3 | COc1ccc(/C=C/C(=O)c2ccc(Br)c3c2OC(C)(C)C=C3)cc1NCC(=O)NO | 0.8 | 0.032 | 0.14 | 0.16 | 0.19 |  |  |  |
|  |  |  |  | COc1ccc(/C=C/C(=O)c2ccc(OC)c3c2OC(C)(C)C=C3)cc1NCCCCCCC(=O)NO | > 10 | 7.23 | > 10 | > 10 | > 10 |  |  |  |
|  |  |  |  | COc1ccc(/C=C/C(=O)c2ccc(Cl)c3c2OC(C)(C)C=C3)cc1NCC(=O)Nc1ccccc1N | > 10 | 2.65 | 4.72 | 3 | 4.77 |  |  |  |
|  |  |  |  | COc1ccc(/C=C/C(=O)c2ccc(OC)c3c2OC(C)(C)C=C3)cc1NCCCCCCC(=O)Nc1ccccc1N | > 10 | 6.61 | > 10 | > 10 | > 10 |  |  |  |
|  |  |  |  | COc1ccc(/C=C/C(=O)c2ccc(OC)c3c2OC(C)(C)C=C3)cc1OCCCCC(=O)NO | 7.13 | 4.84 | > 10 | 4.69 | > 10 |  |  |  |
|  |  |  |  | COc1ccc(/C=C/C(=O)c2ccc(OC)c3c2OC(C)(C)C=C3)cc1OCCCCC(=O)Nc1ccccc1N | > 10 | 6.44 | > 10 | > 10 | 8.49 |  |  |  |
|  |  |  |  | COc1ccc(/C=C/C(=O)c2ccc(OC)c3c2OC(C)(C)C=C3)cc1OCCCC(=O)NO | 5.53 | 6.15 | 3.68 | 8.71 | 5.68 |  |  |  |
|  |  |  |  | COc1ccc(/C=C/C(=O)c2ccc(OC)c3c2OC(C)(C)C=C3)cc1OCCCCCC(=O)NO | 6.08 | 5.74 | > 10 | > 10 | 6.53 |  |  |  |
|  |  |  |  | COc1ccc(/C=C/C(=O)c2ccc(OC)c3c2OC(C)(C)C=C3)cc1OCC(=O)NO | 2.93 | 0.23 | 0.48 | 1.71 | 0.59 |  |  |  |
